Tests used:
Type in all cases: cell-based
[1] = tested on: NCI-H23; experiment: Anti-proliferation assay (CellTiter-Glo 2.0), combination index, NCI-H23
Description: (§1) Cell lines were obtained from ATCC or Health Science Research Resources Bank.
Each cell lines were collected by ordinary method, then suspended in indicated medium containing 10% fetal bovine serum in table 3. The number of cells seeded per well was set to 500 cells/20 μL. […] The concentration of each anti-cancer reagents set to 8 concentrations including 0 nM. After adding the medicine to the cells, the cells were further incubated at 37° C. for 3 days under 5% CO2. Cell survival rates were calculated by adding 20 μL of CellTiter-Glo(registered trademark) 2. 0 (Promega) solution to each well, incubating the cells at room temperature for 10 minutes, and then measuring the chemiluminescence intensity of each well using a plate reader (ARVO).
(§2) A combination index (CI) value at each combined concentration of the medicines was determined.

[2] = tested on: MV-4-11; experiment: Anti-proliferation assay (CellTiter-Glo 2.0), combination index, MV-4-11
Description: as §1
(§3) 384 well culture plate (781086, Greiner Bio-One International) was used for cell survival rate measurement assay. Each cell lines were collected by ordinary method, then suspended in indicated medium containing 10% fetal bovine serum in table 3. The number of cells seeded per well was set to 500 cells/20 μL. After incubation at 37° C. for 24 hours under 5% CO2, Compound 1 and additional compound having an antitumor effect or a vehicle (DMSO) was added to each well by using D300e Digital Dispenser (Tecan). The concentration of Compound 1 was set to 10 concentrations. The concentration of each anti-cancer reagents set to 8 concentrations including 0 nM. After adding the medicine to the cells, the cells were further incubated at 37° C. for 3 days under 5% CO2. Cell survival rates were calculated by adding 20 μL of CellTiter-Glo(registered trademark) 2. 0 (Promega) solution to each well, incubating the cells at room temperature for 10 minutes, and then measuring the chemiluminescence intensity of each well using a plate reader (ARVO).
as §2

[3] = tested on: NCI-H358; experiment: Anti-proliferation assay (CellTiter-Glo 2.0), combination index, NCI-H358
Method in brief: (§4)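 Cells were seeded at 500 cells/well in medium with 10% FBS and exposed to agents at 8 concentrations including 0 nM, for 3 days at 37° C under 5% CO2. Survival was read by CellTiter-Glo 2.0 luminescence, and combination index was determined at each combined concentration.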

[4] = tested on: MKN45; experiment: Anti-proliferation assay (CellTiter-Glo 2.0), combination index, MKN45
Method in brief: as §4

[5] = tested on: RMG-I; experiment: Anti-proliferation assay (CellTiter-Glo 2.0), combination index, RMG-I; conditions: for Description (combinatory effect by CI): Compound 1:combination drug molar ratio 1:9
Description: as §1, §3, §2

[6] = tested on: RT4; experiment: Anti-proliferation assay (CellTiter-Glo 2.0), combination index, RT4
Method in brief: as §4

[7] = Compound 1 123 + combination drug 333 nmol/L (1:2.7)
[8] = Compound 1 370 + combination drug 1000 nmol/L (1:2.7)
[9] = Compound 1 4.57 + combination drug 1.37 nmol/L (1:0.3)
[10] = Compound 1 13.7 + combination drug 4.12 nmol/L (1:0.3)
[11] = Compound 1 41.2 + combination drug 12.3 nmol/L (1:0.3)
[12] = Compound 1 123 + combination drug 37.0 nmol/L (1:0.3)
[13] = Compound 1 370 + combination drug 111 nmol/L (1:0.3)
[14] = Compound 1 4.57 + combination drug 123 nmol/L (1:27)
[15] = Compound 1 13.7 + combination drug 370 nmol/L (1:27)
[16] = Compound 1 41.2 + combination drug 1110 nmol/L (1:27)
[17] = Compound 1 370 + combination drug 10000 nmol/L (1:27)
[18] = Compound 1:combination drug molar ratio 1:27
[19] = Compound 1 41.2 + combination drug 3330 nmol/L (1:81)
[20] = Compound 1 123 + combination drug 10000 nmol/L (1:81)
[21] = Compound 1 13.7 + combination drug 123 nmol/L (1:9)
[22] = Compound 1 41.2 + combination drug 370 nmol/L (1:9)
[23] = Compound 1 123 + combination drug 1110 nmol/L (1:9)
[24] = Compound 1 13.7 + combination drug 41.2 nmol/L (1:3)
[25] = Compound 1 41.2 + combination drug 123 nmol/L (1:3)
[26] = Compound 1 123 + combination drug 370 nmol/L (1:3)
[27] = Compound 1 370 + combination drug 1110 nmol/L (1:3)
[28] = Compound 1 1110 + combination drug 3330 nmol/L (1:3)
[29] = Compound 1 370 + combination drug 3330 nmol/L (1:9)
[30] = Compound 1 1110 + combination drug 10000 nmol/L (1:9)
[31] = Compound 1 123 + combination drug 3330 nmol/L (1:27)
[32] = Compound 1 4.57 + combination drug 370 nmol/L (1:81)
[33] = Compound 1 13.7 + combination drug 1110 nmol/L (1:81)

Compound: CCc1nc(C(N)=O)c(Nc2ccc(N3CCC(N4CCN(C)CC4)CC3)c(OC)c2)nc1NC1CCOCC1 [Gilteritinib]
- CI [1, 7]: 0.540
- Fa [1, 7]: 0.3005
- CI [1, 8]: 0.666
- Fa [1, 8]: 0.6542
- Description (combinatory effect by CI) ([1]; Compound 1:combination drug molar ratio 1:2.7): Synergy (0.3-0.7)
- CI [2, 9]: 0.817
- Fa [2, 9]: 0.5753
- CI [2, 10]: 0.235
- Fa [2, 10]: 0.8986
- CI [2, 11]: 0.189
- Fa [2, 11]: 0.9647
- CI [2, 12]: 0.354
- Fa [2, 12]: 0.9763
- CI [2, 13]: 0.862
- Fa [2, 13]: 0.9802

Compound: COC(=O)c1ccc2c(c1)NC(=O)/C2=C(\Nc1ccc(N(C)C(=O)CN2CCN(C)CC2)cc1)c1ccccc1 [Nintedanib]
- CI [3, 14]: 0.837
- Fa [3, 14]: 0.0649
- CI [3, 15]: 0.576
- Fa [3, 15]: 0.1639
- CI [3, 16]: 0.580
- Fa [3, 16]: 0.3485
- CI [3, 17]: 0.858
- Fa [3, 17]: 0.9756
- Description (combinatory effect by CI) [3, 18]: Synergy (0.3-0.7)
- CI [4, 19]: 0.925
- Fa [4, 19]: 0.5044
- CI [4, 20]: 0.418
- Fa [4, 20]: 0.8817
- Description (combinatory effect by CI) ([4]; Compound 1:combination drug molar ratio 1:81): Synergy (0.3-0.7)
- CI [5, 21]: 0.772
- Fa [5, 21]: 0.2678
- CI [5, 22]: 0.477
- Fa [5, 22]: 0.4576
- CI [5, 23]: 0.683
- Fa [5, 23]: 0.6821
- Description (combinatory effect by CI) [5]: Synergy (0.3-0.7)
- CI [2, 24]: 0.479
- Fa [2, 24]: 0.7111
- CI [2, 25]: 0.370
- Fa [2, 25]: 0.9278
- CI [2, 26]: 0.706
- Fa [2, 26]: 0.9603
- CI [2, 27]: 0.617
- Fa [2, 27]: 0.9933
- CI [2, 28]: 0.770
- Fa [2, 28]: 0.9982
- Description (combinatory effect by CI) ([2]; Compound 1:combination drug molar ratio 1:3): Synergy (0.3-0.7)

Compound: COc1cc2c(Nc3ccc(Br)cc3F)ncnc2cc1OCC1CCN(C)CC1 [Vandetanib]
- CI [3, 22]: 0.322
- Fa [3, 22]: 0.2982
- CI [3, 23]: 0.300
- Fa [3, 23]: 0.5211
- CI [3, 29]: 0.589
- Fa [3, 29]: 0.6208
- CI [3, 30]: 0.733
- Fa [3, 30]: 0.8142
- Description (combinatory effect by CI) ([3]; Compound 1:combination drug molar ratio 1:9): Synergy (0.3-0.7)
- CI [5, 22]: 0.428
- Fa [5, 22]: 0.4951
- CI [5, 23]: 0.938
- Fa [5, 23]: 0.5602
- Description (combinatory effect by CI) [5]: Synergy (0.3-0.7)
- CI [6, 15]: 0.486
- Fa [6, 15]: 0.3118
- CI [6, 16]: 0.444
- Fa [6, 16]: 0.5143
- CI [6, 31]: 0.570
- Fa [6, 31]: 0.6645
- CI [6, 17]: 0.541
- Fa [6, 17]: 0.8261
- Description (combinatory effect by CI) [6, 18]: Synergy (0.3-0.7)
- CI [2, 32]: 0.912
- Fa [2, 32]: 0.5454
- CI [2, 33]: 0.557
- Fa [2, 33]: 0.8322
- CI [2, 19]: 0.503
- Fa [2, 19]: 0.9448
- CI [2, 20]: 0.294
- Fa [2, 20]: 0.9916

Reference: patent US20230146795A1, “ENHANCEMENT OF ANTI-TUMOR ACTIVITY OF SHP2 INHIBITOR PYRIMIDINONE IN COMBINATION WITH NOVEL CANCER MEDICINES IN CANCERS” (TAIHO PHARMACEUTICAL CO., LTD., priority 2020, published 2023)
